Measurements from patent US20170190726A9, “PRODRUG FOR RELEASE OF CISPLATIN AND CYCLOOXYGENASE INHIBITOR” (priority 2013, published 2017).

Experiments:
[1] = test system: PC3 cells; experiment: Apoptosis detection by annexin V/PI assay; format: cell-based, Human; conditions: 25 μM, 6 h
Description: High expression of COX-2 is found in various cancers, however, for PCa cell lines as well as tissue, contradictory results exist. We therefore tested anti-proliferative properties of Platin-A on androgen-responsive LNCaP and androgenunresponsive PC3 and DU145 PCa cells that differ in their malignant potentials. […] However, in LNCaP cells, Platin-A activity was better than an equimolar mixture of cisplatin and aspirin. In general, Pt(IV) compounds are less cytotoxic compared to their active Pt(II) form. […] To evaluate whether Platin-A-dependent inhibition of cancer cell proliferation is associated with apoptosis, Alexa Fluor® 488 annexin V/propidium iodide (PI) staining assay was carried out in PC3 cells and the data were analyzed by fluorescence assisted cell sorting. […]
PC3 cells were seeded at a density of 1×10^6 cells/mL on each well of a six well plate and allowed to grow overnight. […] Cell density was determined and cells were resuspended in 1× annexinVbinding buffer to 1×10^6 cells/mL preparing a sufficient volume to have 100 μL per assay. […] After the incubation period, 400 μL of 1× annexin-binding buffer was added to each sample, samples were gently mixed keeping the samples on ice, and the samples were analyzed on the flow cytometer immediately.

[2] = test system: IL-6; experiment: ELISA of IL-6 in LPS-stimulated RAW 264.7 macrophages; format: cell-based, mouse; conditions: for LPS-induced IL-6 production: preventive: pretreatment 10 μM 6 h, then LPS 12 h
Description: (§2) RAW 264.7 cells were plated at a concentration of 10,000 cells/mL in 96 plates and allowed to grow overnight. For preventative anti-inflammatory treatment, Platin-A (10 μM), aspirin (10 μM), cisplatin (10 μM) and an equimolar ratio of cisplatin and aspirin (10 μM each) was incubated with the RAW cells for 6 h. Lipopolysaccharide (LPS) (100 ng/mL) was added and the cells were further incubated for 12 h. For therapeutic anti-inflammatory treatment, LPS (100 ng/mL) was added to the RAW cells and incubated for 6 h. Platin-A (10 μM), aspirin (10 μM), cisplatin (10 μM) and an equimolar ratio of cisplatin and aspirin (10 μM each) was then added to the cells and incubated for 12 h. ELISA was performed on the supernatants against the cytokines interleukin (IL)-6, IL-10, and TNF-α. Briefly, antibody coated plates were blocked with 10% FBS in PBS for 1 h at room temperature followed by 3 washes. RAW cell supernatants were incubated on the plates for 2 h at room temperature. This was immediately followed by washings and sequential incubations with the cytokine-biotin conjugate and streptavidin working solution. Finally, the substrate reagent containing 3,3′,5,5′-tetramethylbenzidine (100 μL) was added to each well, incubated for 15 min, the reaction was stopped by adding 50 μL H2SO4 (0.1 M). The absorbance was recorded at 450 nm using a BioTek Synergy HT well plate reader.

[3] = test system: TNF-α; experiment: ELISA of TNF-α in LPS-stimulated RAW 264.7 macrophages; format: cell-based, mouse; conditions: for LPS-induced TNF-α production: preventive: pretreatment 10 μM 6 h, then LPS 12 h
Description: as §2

[4] = test system: PC3 cells; experiment: MTT cytotoxicity assay in PC3 cells; format: cell-based, Human; conditions: 72 h
Description: (§1) Human prostate cancer cell lines LNCaP, PC3, and DU145 and RAW 264.7 macrophages were procured from the American type culture collection (ATCC). DU145 cells were grown at 37° C. in 5% CO2 in Eagle's minimum essential medium (EMEM) supplemented with 10% fetal bovine serum (FBS) and 1% penicillin/streptomycin. […] Cells were passed every 3 to 4 days and restarted from frozen stocks upon reaching pass number 20. The cytotoxic behaviors of cisplatin, aspirin, cisplatin+aspirin, and Platin-A were evaluated using the MTT assay against PC3, DU145, LNCaP, and RAW 264.7 cells. […] The cells were treated with different constructs at varying concentrations and incubated for 72 h at 37° C. except for RAW 264.7 macrophages. […] The cells were then treated with 20 μL of MTT (5 mg/mL in PBS) for 5 h. […] Each well was performed in triplicate. […] The IC50 values were reported at +95% confidence intervals.

[5] = test system: DU145 cells; experiment: MTT cytotoxicity assay in DU145 cells; format: cell-based, Human; conditions: 72 h
Description: as §1

[6] = test system: LNCaP cells; experiment: MTT cytotoxicity assay in LNCaP cells; format: cell-based, Human; conditions: 72 h
Description: as §1

[7] = therapeutic: LPS activated macrophages then 10 μM for 12 h

| SMILES | apoptosis induction (annexin V/PI) [1] | LPS-induced IL-6 production [2] | LPS-induced TNF-α production [3] | IC50 [4] | IC50 [5] | IC50 [6] | levels of IL-6 [2, 7] | levels of TNF-α [3, 7] |
| --- | --- | --- | --- | --- | --- | --- | --- | --- |
| CC(=O)Oc1ccccc1C(=O)O [Aspirin, Acetylsalicylic acid] | did not show any changes in healthy PC3 populations | did not show any preventive action | did not show any preventive action | – | – | – | – | – |
| N.N.[Cl][Pt][Cl] [Cisplatin, Cis-diamminedichloroplatinum(II)] | – | did not show any preventive action | did not show any preventive action | 14 ± 4 µM | 5 ± 2 µM | 15 ± 1 µM | did not show any effect | did not show any effect |
